Source: patent US20080085247A1, “Composition of Menthyl Lactate and a Mixture of Menthol Isomers” (SYMRISE GMBH & CO. KG, priority 2004, published 2008)

Tested on: facial skin
Assay: Sensory test of cooling sensation, alcohol-free face lotion, 19 trained panelists
Assay type: in vivo, human
Conditions: 0.3% in alcohol-free face lotion
Protocol: A sensory test was carried out with a group of 19 trained panelists in order to evaluate the performance of the coolant composition according to the present invention of Example 2 consisting of 15% l-menthyl l-lactate, 57.6% racemic neomenthol, 21.8% racemic menthol, 4.8% racemic neoisomenthol and 0.8% racemic isomenthol) for topical applications.
The cooling sensation of the coolant composition of Example 2 was tested in direct comparison to l-menthyl l-lactate. The mixture according to Example 2 and l-menthyl l-lactate were separately incorporated into samples of an alcohol-free face lotion at a level of 0.3%, based on the total weight of the face lotion.
The presented data are average values. The overall cooling sensation was rated on a scale of 1 to 5 (1=very weak; 5=very strong).

In the case of `CC(C)[C@@H]1CC[C@@H](C)C[C@H]1OC(=O)[C@H](C)O` [I-menthyl I-lactate, l-menthyl l-lactate], the “How long does the cooling sensation last ?” value (average) is reported as “about 9 minutes”, the “When does the cooling sensation become noticeable?” value (average) is reported as “after 1 minute” and the “Overall cooling sensation (facial skin)” value (average, scale of 1 to 5 (1=very weak; 5=very strong)) is reported as 2.4. For the same molecule, the “Was the cooling sensation pleasant ? yes” value (share of panelists answering yes) was “yes: 73.7%”.
